{"source": "patent US10633348B2", "about": "“Methods to treat lymphoplasmacytic lymphoma” (Dana-Farber Cancer Institute, Inc., priority 2013, dated 2020)", "key": {"[1]": {"tested_on": "Hck-pY410", "assay": "PhosFlow", "type": "cell-based", "details": "BCWM.1, Hck-wt and Hck-mu BCWM.1 cells; 0.5 μM and 0.1 μM"}, "[2]": {"tested_on": "Abl", "assay": "KiNativ kinase profiling in A375 cells", "type": "cell-based", "details": "1 μM; A375 cells"}, "[3]": {"tested_on": "OCI-Ly7", "assay": "CellTiter-Glo cell viability assay", "type": "cell-based", "details": "Homo sapiens, 72 hours", "experimental": "(§1) CellTiter-Glo® Luminescent cell viability assay (Promega) was used to assess cell survival following treatment with the compounds described. Cells were seeded into 384 well plates with the EL406 Combination Washer Dispenser (BioTek Instruments, Inc.) and the compounds were injected into the cells culture media with the JANUS Automated Workstation (PerkinElmer Inc.). Cells were treated with a series diluted inhibitors (20˜0.04 μM) for 72 hours at 37° C. Luminescent measurement is performed using the 2104 Envision® Multilabel Reader (PerkinElmer Inc.)."}, "[4]": {"tested_on": "OCI-Ly3", "assay": "CellTiter-Glo cell viability assay", "type": "cell-based", "details": "Homo sapiens, OCI-Ly3, 72 h", "experimental": "as §1"}, "[5]": {"tested_on": "BCWM.1", "assay": "CellTiter-Glo cell viability assay", "type": "cell-based", "experimental": "as §1"}, "[6]": {"tested_on": "TMD8", "assay": "CellTiter-Glo cell viability assay", "type": "cell-based", "details": "Homo sapiens, 72 hours", "experimental": "as §1"}, "[7]": {"tested_on": "BTK", "type": "biochemical", "text": "(§2) The in vitro activity of the compounds described herein in inhibiting TAK1, HCK and other kinases were obtained using an Invitrogen Select Screening assay as known in the art. The IC50 values determined from this assay are shown below."}, "[8]": {"tested_on": "ZAK", "type": "cell-based"}, "[9]": {"tested_on": "WM patient primary lymphoplasmacytic cells (LPCs)", "assay": "Apoptosis analysis (Annexin V/Propidium iodide)", "type": "cell-based", "details": "for Apoptosis (%): 24 hours", "experimental": "WM cells were treated with and without the compounds described herein. Cells were incubated at 37° C. with 0.01˜4 uM of the compounds described herein. Apoptosis analysis was performed using Annexin V/Propidium iodide staining with the Apoptosis Detection Kit I (BD Pharmingen). 1×10^6/well cells were treated in 24 well plates for ˜24 hours with inhibitors or corresponding controls. A minimum of 10,000 events were acquired using a BD™ FACSCanto II flow cytometer and analyzed with BD FACS DIVA Software.\nApoptosis analysis of WM patient primary lymphoplasmacytic cells (LPCs) was preformed following A-5 and A-14 treatment of Bone marrow mononuclear cells (BMMC) from WM patients for 24 hours. Apoptosis analysis was performed using Annexin V/Propidium iodide staining with the Apoptosis Detection Kit I (BD Pharmingen) in CD19-APC-cy7 antibody (BD Pharmingen) gated LPCs population."}, "[10]": {"tested_on": "BTK-pY223", "assay": "PhosFlow", "type": "cell-based", "details": "BCWM.1, Hck-wt and Hck-mu BCWM.1 cells; 0.5 μM and 0.1 μM", "experimental": "PhosFlow was performed to detect levels of phosphorylation for BTK-pY223 (BD Biosciences) and Hck-pY410 (Abcam) in BCWM.1 cells, in BCWM cells that stably overexpress HCK (BCWM.1_HCK-wt) and in BCWM.1 cells that stably overexpress the T338M mutant of HCK (BCWM.1_HCK-mu). Cells were fixed with BD Phosflow Fix Buffer I (BD Biosciences) at 37° C. for 10 min, then washed twice with BD Phosflow Perm/Wash Buffer I (BD Biosciences). Cells were suspended in BD Phosflow Perm/Wash Buffer I at 10 million/ml and antibodies aliquoted to flow tubes with 100 μl cells. Cells were incubated at room temperature for 30 min in the dark. Cells were washed twice with BD Phosflow Perm/Wash Buffer I before performing flow analysis using a BD™ FACSCanto II flow cytometer."}, "[11]": {"tested_on": "LYN", "type": "cell-based"}, "[12]": {"tested_on": "FYN", "assay": "KiNativ kinase profiling in A375 cells", "type": "cell-based", "details": "1 μM; A375 cells"}, "[13]": {"tested_on": "HCK", "type": "biochemical", "details": "read-out: HCK IC50 (nM) Inv", "text": "as §2"}, "[14]": {"tested_on": "TAK1", "type": "biochemical"}, "[15]": {"assay": "Isobolograms, synergy with a BTK inhibitor", "details": "FIG. 1", "text": "Points below the 1 to 1 line connecting the X and Y axes are ‘synergistic’, points near the line are ‘additive’, and points above it are antagonistic."}, "[16]": {"tested_on": "MWCL-1", "assay": "CellTiter-Glo cell viability assay", "type": "cell-based", "details": "72 h", "experimental": "as §1"}, "[17]": {"tested_on": "Ramos", "assay": "CellTiter-Glo cell viability assay", "type": "cell-based", "details": "Homo sapiens, 72 h", "experimental": "as §1"}, "[18]": {"tested_on": "OCI-Ly19", "assay": "CellTiter-Glo cell viability assay", "type": "cell-based", "details": "Homo sapiens, OCI-LY19, 72 h", "experimental": "as §1"}}}
{"smiles": "CCN1CCN(Cc2ccc(NC(=O)c3ccc(C)c(Oc4cc(Nc5cnn(C)c5)ncn4)c3)cc2C(F)(F)F)CC1", "note": "[(A-5), N-(4-((4-ethylpiperazin-1-yl)methyl)-3-(trifluoromethyl)phenyl)-4-methyl-3-((6-((1-methyl-1H-pyrazol-4-yl)amino)pyrimidin-4-yl)oxy)benzamide]", "values": [{"measurement": "Hck phosphorylation", "setting": "[1]", "value": "inhibit"}, {"measurement": "Abl inhibition", "setting": "[2]", "value": "> 90", "unit": "%"}, {"measurement": "EC50", "setting": "[3]", "value": 655, "unit": "nM"}, {"measurement": "EC50", "setting": "[4]", "value": 4710, "unit": "nM"}, {"measurement": "EC50", "setting": "[5]; 72 hours", "value": 72, "unit": "nM"}, {"measurement": "EC50", "setting": "[5]; BCWM1, 72 h", "value": 51, "unit": "nM"}, {"measurement": "EC50", "setting": "[6]", "value": 132, "unit": "nM"}, {"measurement": "IC50", "setting": "[7]", "value": "> 10000", "unit": "nM"}, {"measurement": "ZAK inhibition", "setting": "[8]", "value": 75.7, "unit": "%"}, {"measurement": "Apoptosis (%)", "setting": "[9]; Patient 1, 1.0 μM", "value": 57.7, "unit": "%"}, {"measurement": "Apoptosis (%)", "setting": "[9]; Patient 2, 1.0 μM", "value": 28.9, "unit": "%"}, {"measurement": "Apoptosis (%)", "setting": "[9]; Patient 3, 1.0 μM", "value": 29.48, "unit": "%"}, {"measurement": "Apoptosis (%)", "setting": "[9]; Patient 4, 1.0 μM", "value": 48.56, "unit": "%"}, {"measurement": "Apoptosis (%)", "setting": "[9]; Patient 5, 0.5 μM", "value": 23.25, "unit": "%"}, {"measurement": "Apoptosis (%)", "setting": "[9]; Patient 5, 1.0 μM", "value": 30.5, "unit": "%"}, {"measurement": "Apoptosis (%)", "setting": "[9]; Patient 6, 1.0 μM", "value": 17.82, "unit": "%"}, {"measurement": "Apoptosis (%)", "setting": "[9]; Patient 7, 0.5 μM", "value": 17.23, "unit": "%"}, {"measurement": "Apoptosis (%)", "setting": "[9]; Patient 7, 1.0 μM", "value": 18.2, "unit": "%"}, {"measurement": "Apoptosis (%)", "setting": "[9]; Patient 8, 0.5 μM", "value": 11.04, "unit": "%"}, {"measurement": "Apoptosis (%)", "setting": "[9]; Patient 8, 1.0 μM", "value": 17.31, "unit": "%"}, {"measurement": "Apoptosis (%)", "setting": "[9]; Patient 10, 0.2 μM", "value": 21.5, "unit": "%"}, {"measurement": "Apoptosis (%)", "setting": "[9]; Patient 10, 1.0 μM", "value": 28.7, "unit": "%"}, {"measurement": "Apoptosis (%)", "setting": "[9]; Patient 11, 0.2 μM", "value": 30.2, "unit": "%"}, {"measurement": "Apoptosis (%)", "setting": "[9]; Patient 11, 1.0 μM", "value": 47, "unit": "%"}, {"measurement": "apoptosis compared with DMSO control", "setting": "[9]; WM patient primary LPCs", "value": "induced significant apoptosis"}, {"measurement": "BTK phosphorylation", "setting": "[10]", "value": "inhibit"}, {"measurement": "LYN inhibition", "setting": "[11]", "value": 87.8, "unit": "%"}, {"measurement": "FYN inhibition", "setting": "[12]", "value": 71.2, "unit": "%"}]}
{"smiles": "CCN1CCN(Cc2ccc(NC(=O)c3ccc(C)c(Oc4cc(Nc5cncnc5)ncn4)c3)cc2C(F)(F)F)CC1", "note": "[(A-8), N-(4-((4-ethylpiperazin-1-yl)methyl)-3-(trifluoromethyl)phenyl)-4-methyl-3-((6-(pyrimidin-5-ylamino)pyrimidin-4-yl)oxy)benzamide]", "values": [{"measurement": "IC50", "setting": "[13]", "value": 889, "unit": "nM"}, {"measurement": "IC50", "setting": "[14]", "value": 487, "unit": "nM"}]}
{"smiles": "C=CC(=O)Nc1cc(Oc2cc(C(=O)Nc3ccc(CN4CCN(CC)CC4)c(C(F)(F)F)c3)ccc2C)ncn1", "note": "[(A-17), 3-((6-acrylamidopyrimidin-4-yl)oxy)-N-(4-((4-ethylpiperazin-1-yl)methyl)-3-(trifluoromethyl)phenyl)-4-methylbenzamide]", "values": [{"measurement": "synergy between compound and a BTK inhibitor (isobolograms)", "setting": "[15]", "value": "synergy"}, {"measurement": "EC50", "setting": "[16]", "value": 202, "unit": "nM"}, {"measurement": "EC50", "setting": "[4]", "value": 247, "unit": "nM"}, {"measurement": "EC50", "setting": "[17]", "value": 389, "unit": "nM"}, {"measurement": "EC50", "setting": "[5]; BCWM1, 72 h", "value": 8, "unit": "nM"}, {"measurement": "EC50", "setting": "[18]", "value": 188, "unit": "nM"}, {"measurement": "IC50", "setting": "[7]", "value": 3380, "unit": "nM"}]}
